Reference: patent US20230404998A1, “Combination Therapies for Treating Cancer” (ASCENTAGE PHARMA (SUZHOU) CO., LTD., priority 2020, published 2023)
Entries after “also recorded” stand apart in the source; their conditions may differ. Marks after values point to notes of the source that are not given here.

Tests used:
VEGFR2 = VEGFR2 (Homo sapiens, UniProt P35968); assay: Cell-free kinase assay VEGFR2; format: biochemical
[1] = test system: VEGFR, SRC, Akt and extracellular signal-regulated kinases in vascular endothelial cells; assay: Phosphorylation of VEGFR, SRC and downstream proteins in vascular endothelial cells; format: cell-based
RAG = assay: Antiproliferative activity in RCC line RAG; format: cell-based; settings: Mus musculus; murine RCC line RAG
VEGFR1 = VEGFR1 (Homo sapiens, UniProt P17948); assay: Cell-free kinase assay VEGFR1; format: biochemical
Ph+ ALL SUP-B15 cells = assay: Cell viability assay (Cell-Titer Glo) in leukemia cell lines; format: cell-based; settings: 72 hours
Experimental: After treatment, cell viability was measured by Promega© Cell-Titer Glo®3D Cell Viability Assay luminescence assay kit according to instructions from the manufacturer (Promega, Madison, WI, USA, Cat #G7571). Luminescence signal was detected using a BioTek Synergy H1 Hybrid Multi-Mode (Microplate) Reader (BioTek, Shanghai). Cellular proliferative (i.e. viability) curves were plotted and anti-proliferation IC50 values were calculated using Graphpad Prism version 6.0 software (GraphPad Software, San Diego, CA USA).

RANCA = assay: Antiproliferative activity in RCC line RANCA; format: cell-based; settings: Mus musculus; murine RCC line RANCA
[2] = test system: human umbilical vein endothelial cells; assay: Antiproliferative effects on human umbilical vein endothelial cells; format: cell-based
[3] = test system: Y253H/T315I orthotopic tumor model; assay: In vivo efficacy, Y253H/T315I orthotopic tumor model; set-up: species or system mouse; settings: ABL001 60 mg/kg, Ponatinib 20 mg/kg, HQP1351 20 mg/kg
Experimental: (§1) In vivo efficacy was evaluated using the syngeneic mouse model derived from BaF3 cells with T315I and/or compound mutations. Tumor models were established by intravenously injecting tumor cells (1×10^5/mouse) into the caudal vein under sterile conditions. Mice were randomized into control and treatment groups with 8-10 mice per group and start the treatment from the second day post inoculation. The animal body weights were measured twice a week. The antitumor activity curves of test articles were plotted with the treatment time (day) on the X-axis, and corresponding survival rate on the Y-axis. A Log-rank (Mental-cox) test was employed to analyze the statistical significance of any difference between the treatment group and the control group. Prism version 7 (GraphPad Software Inc., San Diego, CA) was used for all statistical analysis and for graphic presentation.

PD-L1 in RCC cells = assay: PD-L1 expression in RCC cells; format: cell-based
FGFR = assay: Phosphorylation of FGFR and downstream proteins in cancer cells; format: cell-based
[4] = test system: F317L/T315I orthotopic tumor model; assay: In vivo efficacy, F317L/T315I orthotopic tumor model; set-up: species or system mouse; settings: ABL001 60 mg/kg, Ponatinib 20 mg/kg, HQP1351 20 mg/kg
Experimental: as §1

RANCA tumor tissues = assay: Tumor-infiltrating lymphocyte assays in RANCA tumor tissues; format: in vivo, mouse
[5] = test system: p-SRC and PD-L1 expression in H460 and A549 cells; assay: Western blot / RT-PCR of p-SRC and PD-L1 expression in NSCLC cell lines; format: cell-based, human
Experimental: Cells were treated with the indicated concentrations and washed twice with cold PBS. Whole cell extracts were collected in RIPA lysis buffer (Santa Cruz Biotechnology, Germany), and protein concentration of the lysates was measured using a BCA Protein Assay Kit (ThermoFisher, USA). The protein samples were electrophoresed through a 10% SDS-PAGE gel and transferred to a polyvinylidene difluoride (PVDF) membrane (Roche, USA). After blocking, membranes were probed with primary antibodies (1:1000) against SRC, p-SRC, PD-L1, GAPDH, 0-tubulin (Cell Signaling Technology, USA) followed by washing and incubation with a secondary antibody (1:5000) conjugated to horseradish peroxidase (Santa Cruz Biotechnology, USA). Protein bands were visualized by applying a chemiluminescent reagent (Pierce ECL kit, Thermo Fisher Scientific, USA) and protein level were quantified by Image Lab (Bio-Rad Laboratory, USA).
Total cellular RNA was extracted by Trizol (Invitrogen, USA) for mRNA analysis. RNA was reverse-transcribed to cDNA profile through using the Transcriptor First Strand cDNA Synthesis kit (Roche Applied Science, USA) and then Real time PCR reactions were performed using the FastStart SYBR Green Master (ROX) reagent (Roche Applied Science, USA) according to the manufacturer's instructions. […]

VEGFR3 = VEGFR3 (Homo sapiens, UniProt P35916); assay: Cell-free kinase assay VEGFR3; format: biochemical
BaF3(Bcr-Abl) E255K = BaF3(Bcr-Abl) E255K (Homo sapiens, UniProt P00519, E255K, cells depend on it); settings: read-out: Anti-proliferation (IC50)
Experimental: (§2) The anti-proliferative effect was determined by a water-soluble tetrazolium (WST)-based assay using Cell Counting Kit-8 (CCK-8, #D3100L4057, Shanghai life ilab bio technology co., LTD, China). Cells were seeded in 96-well plates and treated with different concentrations of test articles. […] Each treatment was tested in triplicates. The plate was then cultured at 37° C. with 5% CO2 for 72 hours. At the end of treatments, 20 μl/well of CCK-8 reagent was directly added to each wells. The plate was then incubated at 37° C. with 5% CO2 for 2-4 h. The OD value was detected at 450 nm on a microplate reader (SpectraMax I3X, Molecular Devices, US). IC50 values were calculated with Graphpad Prism 7.0 software using nonlinear regression (curve fitting) type data analysis. For combination effect assay, the cells viability was normalized using the mean OD value of triplicated wells for the single agent control.

[6] = molecular target: BaF3(Bcr-Abl) Y253H-E255V (Homo sapiens, UniProt P00519, Y253H/E255V, cells depend on it); settings: read-out: Anti-proliferation (IC50)
Experimental: as §2

BaF3(Bcr-Abl) M351T = BaF3(Bcr-Abl) M351T (Homo sapiens, UniProt P00519, M351T, cells depend on it); settings: read-out: Anti-proliferation (IC50)
Experimental: as §2

BaF3(Bcr-Abl) E453K = BaF3(Bcr-Abl) E453K (Homo sapiens, UniProt P00519, E453K, cells depend on it); settings: read-out: Anti-proliferation (IC50)
Experimental: as §2

[7] = molecular target: BaF3(Bcr-Abl) G250E-V299L (Homo sapiens, UniProt P00519, G250E/V299L, cells depend on it); settings: read-out: Anti-proliferation (IC50)
Experimental: as §2

[8] = molecular target: BaF3(Bcr-Abl) T315I-E453K (Homo sapiens, UniProt P00519, T315I/E453K, cells depend on it); settings: read-out: Anti-proliferation (IC50)
Experimental: as §2

[9] = test system: E255V/T315I orthotopic tumor model; assay: In vivo efficacy, E255V/T315I orthotopic tumor model; set-up: species or system mouse; settings: ABL001 60 mg/kg, Ponatinib 20 mg/kg, HQP1351 20 mg/kg
Experimental: as §1

[10] = test system: T315I orthotopic tumor model; assay: In vivo efficacy, T315I orthotopic tumor model; set-up: species or system mouse; settings: ABL001 60 mg/kg, Ponatinib 20 mg/kg, HQP1351 20 mg/kg
Experimental: as §1

[11] = molecular target: T1, BCR-ABL single or compound mutations (BaF3 cells) (Homo sapiens, UniProt P00519, cells depend on it, form not given); assay: Cell based anti-proliferation studies, BaF3 cells with BCR-ABL single or compound mutations (summary); set-up: species or system murine
T1 construct: fused on or other part: P11274 (Breakpoint cluster region protein)
Experimental: as §2
A series of cell lines expressing BCR-ABL single or compound mutations were constructed based on BaF3 murine pro-B cell line.

Sequence of VEGFR2 (P35968 20-1356): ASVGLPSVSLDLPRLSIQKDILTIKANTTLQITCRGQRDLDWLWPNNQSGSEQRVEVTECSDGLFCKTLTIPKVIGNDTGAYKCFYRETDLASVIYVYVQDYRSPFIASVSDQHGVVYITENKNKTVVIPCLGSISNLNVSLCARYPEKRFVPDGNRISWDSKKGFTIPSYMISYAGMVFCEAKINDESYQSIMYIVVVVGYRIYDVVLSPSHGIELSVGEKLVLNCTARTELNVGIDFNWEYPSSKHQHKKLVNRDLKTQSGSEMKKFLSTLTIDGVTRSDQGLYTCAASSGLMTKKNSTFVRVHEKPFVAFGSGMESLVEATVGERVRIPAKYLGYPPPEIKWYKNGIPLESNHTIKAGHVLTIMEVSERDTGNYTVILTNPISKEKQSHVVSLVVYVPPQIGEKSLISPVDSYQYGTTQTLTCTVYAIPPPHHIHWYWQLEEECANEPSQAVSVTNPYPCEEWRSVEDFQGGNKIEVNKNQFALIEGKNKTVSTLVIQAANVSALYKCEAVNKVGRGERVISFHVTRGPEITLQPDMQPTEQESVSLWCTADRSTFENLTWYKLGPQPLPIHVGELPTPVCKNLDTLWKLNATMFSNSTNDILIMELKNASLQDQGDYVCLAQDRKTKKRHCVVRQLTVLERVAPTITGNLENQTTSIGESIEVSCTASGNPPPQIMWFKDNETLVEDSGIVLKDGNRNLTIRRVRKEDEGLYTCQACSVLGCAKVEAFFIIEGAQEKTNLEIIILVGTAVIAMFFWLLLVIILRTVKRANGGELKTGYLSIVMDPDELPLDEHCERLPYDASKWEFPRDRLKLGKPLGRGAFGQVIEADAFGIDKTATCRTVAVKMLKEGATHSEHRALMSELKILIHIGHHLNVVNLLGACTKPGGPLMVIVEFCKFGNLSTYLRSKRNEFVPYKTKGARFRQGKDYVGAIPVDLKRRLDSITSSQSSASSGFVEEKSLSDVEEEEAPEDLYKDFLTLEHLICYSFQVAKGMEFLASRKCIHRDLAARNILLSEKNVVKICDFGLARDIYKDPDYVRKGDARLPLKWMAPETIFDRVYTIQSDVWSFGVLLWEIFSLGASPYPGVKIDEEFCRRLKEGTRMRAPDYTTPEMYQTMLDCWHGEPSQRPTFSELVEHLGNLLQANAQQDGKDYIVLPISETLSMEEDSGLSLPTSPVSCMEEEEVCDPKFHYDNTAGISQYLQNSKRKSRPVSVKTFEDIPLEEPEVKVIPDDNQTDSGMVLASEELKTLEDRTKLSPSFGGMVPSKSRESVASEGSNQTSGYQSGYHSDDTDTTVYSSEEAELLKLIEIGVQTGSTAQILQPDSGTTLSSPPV
Sequence of VEGFR1 (P17948 27-1338, species assumed): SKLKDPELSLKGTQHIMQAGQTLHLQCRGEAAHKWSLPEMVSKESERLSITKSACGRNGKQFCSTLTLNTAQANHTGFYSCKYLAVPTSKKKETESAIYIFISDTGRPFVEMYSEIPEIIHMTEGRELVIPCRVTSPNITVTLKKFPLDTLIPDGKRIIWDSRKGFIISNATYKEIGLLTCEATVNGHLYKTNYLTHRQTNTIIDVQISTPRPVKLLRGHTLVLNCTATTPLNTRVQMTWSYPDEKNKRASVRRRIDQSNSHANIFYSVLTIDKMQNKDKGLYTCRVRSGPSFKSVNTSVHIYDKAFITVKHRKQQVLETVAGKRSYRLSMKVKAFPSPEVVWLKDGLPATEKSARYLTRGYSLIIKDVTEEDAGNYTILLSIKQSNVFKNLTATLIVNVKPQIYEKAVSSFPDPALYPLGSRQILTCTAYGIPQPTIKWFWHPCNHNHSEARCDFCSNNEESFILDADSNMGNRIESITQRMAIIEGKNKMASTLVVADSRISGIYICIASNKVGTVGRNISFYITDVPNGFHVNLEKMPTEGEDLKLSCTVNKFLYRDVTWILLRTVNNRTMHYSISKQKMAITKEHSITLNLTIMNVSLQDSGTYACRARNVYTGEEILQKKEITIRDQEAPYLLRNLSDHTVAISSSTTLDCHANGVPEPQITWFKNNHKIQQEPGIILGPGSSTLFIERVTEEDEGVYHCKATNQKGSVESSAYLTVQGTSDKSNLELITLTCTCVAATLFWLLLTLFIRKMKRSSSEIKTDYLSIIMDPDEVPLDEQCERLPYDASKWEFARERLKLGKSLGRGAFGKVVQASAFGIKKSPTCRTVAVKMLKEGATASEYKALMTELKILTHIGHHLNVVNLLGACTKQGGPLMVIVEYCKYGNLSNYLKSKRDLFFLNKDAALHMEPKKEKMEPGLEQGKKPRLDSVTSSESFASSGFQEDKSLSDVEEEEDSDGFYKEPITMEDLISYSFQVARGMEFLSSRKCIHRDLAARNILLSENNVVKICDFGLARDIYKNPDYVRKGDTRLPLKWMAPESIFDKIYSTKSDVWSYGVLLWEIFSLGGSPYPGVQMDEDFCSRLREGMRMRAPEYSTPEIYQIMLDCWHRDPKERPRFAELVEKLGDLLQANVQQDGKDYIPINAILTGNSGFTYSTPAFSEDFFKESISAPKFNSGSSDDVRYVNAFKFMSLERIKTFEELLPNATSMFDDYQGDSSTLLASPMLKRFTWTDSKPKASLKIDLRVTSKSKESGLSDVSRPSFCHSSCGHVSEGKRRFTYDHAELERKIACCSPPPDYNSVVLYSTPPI
Sequence of VEGFR3 (P35916 25-1363): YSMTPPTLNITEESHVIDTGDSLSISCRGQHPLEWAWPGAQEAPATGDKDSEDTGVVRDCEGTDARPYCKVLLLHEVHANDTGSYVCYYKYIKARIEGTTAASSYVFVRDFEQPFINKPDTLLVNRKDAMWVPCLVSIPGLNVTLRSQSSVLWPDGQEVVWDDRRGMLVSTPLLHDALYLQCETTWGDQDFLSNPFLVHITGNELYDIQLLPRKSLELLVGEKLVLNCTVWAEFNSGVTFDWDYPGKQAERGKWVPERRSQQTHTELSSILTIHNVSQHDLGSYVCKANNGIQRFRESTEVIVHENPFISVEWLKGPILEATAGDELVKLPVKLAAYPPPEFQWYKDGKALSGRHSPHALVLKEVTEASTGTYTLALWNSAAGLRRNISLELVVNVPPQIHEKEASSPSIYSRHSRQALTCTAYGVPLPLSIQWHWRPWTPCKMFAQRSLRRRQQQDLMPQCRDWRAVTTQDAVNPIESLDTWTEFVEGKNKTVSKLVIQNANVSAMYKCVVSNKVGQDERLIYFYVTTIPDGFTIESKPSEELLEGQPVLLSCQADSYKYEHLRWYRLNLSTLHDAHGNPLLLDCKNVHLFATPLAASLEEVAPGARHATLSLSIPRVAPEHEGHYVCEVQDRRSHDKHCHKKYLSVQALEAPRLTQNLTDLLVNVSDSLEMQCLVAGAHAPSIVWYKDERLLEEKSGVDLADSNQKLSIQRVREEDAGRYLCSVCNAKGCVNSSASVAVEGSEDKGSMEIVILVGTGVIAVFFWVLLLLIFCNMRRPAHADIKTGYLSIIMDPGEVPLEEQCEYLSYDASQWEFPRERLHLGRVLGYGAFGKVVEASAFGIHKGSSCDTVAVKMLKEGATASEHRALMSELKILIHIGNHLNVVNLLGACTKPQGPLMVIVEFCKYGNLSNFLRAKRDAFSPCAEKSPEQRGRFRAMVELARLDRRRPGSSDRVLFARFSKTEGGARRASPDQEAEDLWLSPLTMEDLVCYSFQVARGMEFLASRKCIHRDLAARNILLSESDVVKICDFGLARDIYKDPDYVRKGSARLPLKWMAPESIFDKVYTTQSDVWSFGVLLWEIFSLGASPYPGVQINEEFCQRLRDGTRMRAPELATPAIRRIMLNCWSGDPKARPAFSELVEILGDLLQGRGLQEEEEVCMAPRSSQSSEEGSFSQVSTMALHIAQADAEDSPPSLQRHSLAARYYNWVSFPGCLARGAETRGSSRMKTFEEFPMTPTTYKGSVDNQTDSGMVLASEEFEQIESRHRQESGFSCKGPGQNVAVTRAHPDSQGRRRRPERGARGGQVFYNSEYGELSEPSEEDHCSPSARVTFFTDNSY

For `Cc1ccc(C(=O)Nc2ccc(CN3CCN(C)CC3)c(C(F)(F)F)c2)cc1C#Cc1cnc2[nH]ncc2c1` [HQP1351, 3-(2-(1H-pyrazolo[3,4-b]pyridin-5-yl)ethynyl)-4-methyl-N-(4-((4-methylpiperazin-1-yl)methyl)-3-(trifluoromethyl)phenyl)-benzamide], the IC50 (VEGFR2) was 6.1 nM, the “Phosphorylation of VEGFR, SRC, and downstream proteins Akt and extracellular signal-regulated kinases” value [1] was “inhibiting phosphorylation of VEGFR, SRC, and downstream proteins” and the IC50 (RAG) was 53 nM. The IC50 (VEGFR1) was 4.2 nM, the “Proliferation of Ph+ leukemia cells including SUP-B15” value (Ph+ ALL SUP-B15 cells) was “selectively inhibited the proliferation of Ph+ cells; also recorded: potently inhibits the proliferation” and the IC50 (RANCA) was 141 nM. The “Antiproliferative effects compared to lenvatinib” value [2] was “more potent antiproliferative effects”, the Median survival [3] was 18.5 and the “Survival prolongation (%)” value [3] was 8.82%. The “Survive/Total @ 24” value [3] was 0/8, the “Expression of PD-L1 in RCC cells” value (PD-L1 in RCC cells) was “reduced expression of PD-L1” and the “Phosphorylation of FGFR and downstream proteins” value (FGFR) was “inhibiting phosphorylation of FGFR and downstream proteins”. For the same compound, the Median survival [4] was 25.0****^$, the “Survival prolongation (%)” value [4] was 42.86% and the “Survive/Total @ 24” value [4] was 0/8. For the same compound, the “Immune cell numbers in RANCA tumor tissues” value (RANCA tumor tissues) was “increased numbers of cytotoxic T cells (CTL, CD8^+) and natural-killer cells”, the “PD-L1 and p-SRC levels at different time points” value ([5]; 2 μM HQP-1351) was “time-dependent suppression of PD-L1 and p-SRC levels” and the “PD-L1 expression and p-SRC phosphorylation, differing concentrations” value ([5]; NSCLC cell lines, 24 h, Western blot) was “decreased PD-L1 expression as well as p-SRC phosphorylation in a concentration-dependent manner”. For the same compound, the IC50 (VEGFR3) was 4.1 nM, the GI50 (BaF3(Bcr-Abl) E255K) was 22 ± 13 nM and the GI50 [6] was 122 nM. It also gave a GI50 (BaF3(Bcr-Abl) M351T) of 9 ± 1 nM, a GI50 (BaF3(Bcr-Abl) E453K) of 3 nM and a GI50 [7] of 14 ± 2 nM. For the same compound, the GI50 [8] was 61 ± 27 nM, the Median survival [9] was 27.0**** and the “Survival prolongation (%)” value [9] was 28.57%. The “Survive/Total @ D26” value [9] was 0/10, the Median survival [10] was 27.0**** and the “Survival prolongation (%)” value [10] was 28.57%. The “Survive/Total @ D43” value [10] was 0/10, the “Anti-proliferative effectiveness against compound mutations compared with other TKIs” value ([11]; BCR-ABL compound mutations) was “more effective than ponatinib, asciminib and other TKIs” and the GI50 ([11]; read-out: IC50 values toward BCR-ABL single or compound mutations, range over BaF3 BCR-ABL mutant cell lines) was 6 to 300 nM.
